In patent US20190314197A1, “Topical Ocular Delivery Methods and Devices for Use in the Same” (Kedalion Therapeutics, Inc., priority 2018, published 2019):

Tests used:
Type in all cases: in vivo, human
[1] = Pupil diameter after self-administered pilocarpine micro-dose (presbyopia); settings: non-dosed fellow eye
Description: (§1) A 10 μl micro-dose of a 1% pilocarpine solution was self-administered using an electromagnetic actuated fluid delivery device, e.g., as described above, by three subjects to their own eye. The age range of the subjects was 52 years to 68 years, and all subjects were male. The pilocarpine micro-dose was self-administered by the subjects.
(§2) Baseline, pre-dose values of pupil diameter and near visual acuity in both eyes prior to dosing was measured for all subjects, and then following the baseline measurements, the subjects were dosed in only one eye (the eye with the poorer visual acuity) with the micro-dose pilocarpine solution. Approximately 45 to 60 minutes after dosing, pupil diameter and near visual acuity were again tested. Near visual acuity was measured using a Snellen card at a distance of 40 cm. A tabulation of results is given below in Table A.

[2] = Near visual acuity (Snellen card at 40 cm) after pilocarpine micro-dose (presbyopia); settings: dosed eye
Description: as §1, §2

[3] = Trial 2: intraocular pressure reduction (Goldmann applanation tonometry) in primary open angle glaucoma patients; settings: for average IOP decrease measured per patient: approximately 8 hours after dosing
Description: Trial 2 compared the efficacy (dose volume equivalence) of 0.005% w/v latanoprost for intraocular pressure reduction when delivered via AcuStream™ (pre-trial calibration volume=9.2 μl) versus the standard eye dropper for topical drug delivery (approximate volume=30 μl).
Patients included in Trial 2 have previously been diagnosed with primary open angle glaucoma on the basis of intraocular pressure and visual field testing, fundus examination or optical coherence tomography (OCT) data and are currently on prostaglandin analog medical therapy. Patients with corneal abnormalities that would interfere with accurate IOP measurements with applanation tonometry, use of an oral or topical ophthalmic steroids within the past 14 days from screening date, any active ocular surface or anterior segment disease, or progressive field loss during the past year were excluded from the study. Thirteen men and five women participated in the trial.
Recruited patients were taken off medical therapy for a period of 3-4 weeks prior to the study to allow drug “wash out”, thereby elevating their IOPs to pre-treatment levels which was confirmed by examination of the patients' chart history. Patients were randomly assigned as “test” (AcuStream™), or “control” (standard eye dropper). The mean age of the control group and test group were 61.0 years and 65.2 years, respectively.
The patients assigned to either the “test” or “control” group by means of a random numbers table in order to mitigate any potential cross-over effects that could confound data interpretation. An odd number dictated that the patient was in the test group, while even-numbered patients were in the control group.
After performing slit lamp examinations on each patient to verify eligibility and obtaining informed consent, intraocular pressure (IOP) was measured by a sole experienced examiner who was blind to the randomized conditions. A pre-calibrated Goldmann applanation tonometer coupled to a Haag-Streit 900 EQ slit lamp was used to conduct baseline IOP measurements. Once baseline IOP data were verified to be equivalent to pre-medical therapy levels (based on patient's treatment history), the patient then continued to the dosing stage of the study.
Latanoprost solution was administered by a sole ophthalmologist to both eyes of each patient, based on the pre-determined randomized condition.

Compound	miotic effect in non-dosed eye [1]	mean improvement in near visual acuity ([2]; all subjects) [lines]	# of lines change in visual acuity ([2]; mean of 3 subjects) [lines]	average IOP decrease measured per patient ([3]; AcuStream (test group)) [mm Hg]	difference in IOP reduction between AcuStream and standard dropper groups ([3]; Wilcoxon Ranked Sum test, p=0.3447)	post-instillation IOP, single patient outlier ([3]; control group (standard dropper), OD, baseline IOP 30 mm Hg) [mm Hg]	equivalence of 9.2 μl AcuStream dose volume to 30 μl standard eye drops, intraocular pressure reduction ([3]; human, in vivo)	average IOP decrease measured per patient ([3]; standard eye dropper (control group)) [mm Hg]
CC[C@@H]1C(=O)OC[C@@H]1Cc1cncn1C [pilocarpine]	no miotic effect	2	2					
CC(C)OC(=O)CCC/C=C\C[C@@H]1[C@@H](CC[C@@H](O)CCc2ccccc2)[C@H](O)C[C@@H]1O [latanoprost]				5.0	no statistically significant differences	17	pharmacodynamic equivalence	4.3
